The target in experiment [1] is T1, gluthathione reductase (GR) (Homo sapiens, UniProt P00390).
T1 sequence (P00390 44-522): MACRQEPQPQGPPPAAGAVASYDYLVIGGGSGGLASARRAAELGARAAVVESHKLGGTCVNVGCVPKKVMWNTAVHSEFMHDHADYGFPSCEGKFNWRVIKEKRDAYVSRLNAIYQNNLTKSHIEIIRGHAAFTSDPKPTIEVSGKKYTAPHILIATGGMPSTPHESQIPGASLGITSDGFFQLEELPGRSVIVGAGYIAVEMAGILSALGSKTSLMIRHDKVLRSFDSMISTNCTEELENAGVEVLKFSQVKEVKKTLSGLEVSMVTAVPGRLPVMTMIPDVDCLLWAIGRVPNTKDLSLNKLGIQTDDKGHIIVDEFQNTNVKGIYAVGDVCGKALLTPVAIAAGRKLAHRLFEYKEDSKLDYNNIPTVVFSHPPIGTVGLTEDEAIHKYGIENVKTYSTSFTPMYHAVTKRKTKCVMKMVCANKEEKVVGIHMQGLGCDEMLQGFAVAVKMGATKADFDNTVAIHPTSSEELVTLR
Kind of experiment: Inhibition of recombinant GR (GSSG assay). The format is biochemical. The procedure:
(§1) Small molecule inhibition of recombinant thioredoxin reductase 1 (TrxR1) and gluthathione reductase (GR) was examined in 96-well plate format. 15 nM TrxR1 was incubated in the presence of 250 μM NADPH, 0.1 mg/ml BSA, and various concentrations of the compound of Example 1 (1% DMSO final) in 50 mM Tris (pH 7.5) and 2 mM EDTA buffer for 15 minutes. Following the incubation period, 2.5 mM DTNB was added to each well and the change in O.D. at 412 nm was followed. Percent activity was determined using DMSO vehicle and no TrxR1 (blank) controls. 2 nM GR was incubated in the presence of 250 μM NADPH, 0.1 mg/ml BSA, and various concentrations of compounds (1% DMSO final) in 50 mM Tris (pH 7.5) and 2 mM EDTA buffer for 15 minutes. Following the incubation period, 1 mM GSSG was added to each well and the change in O.D. at 340 nm was followed. Percent activity was determined using DMSO vehicle and no GR (blank) controls.

Experiment [2] concerns the target T2, recombinant thioredoxin reductase 1 (TrxR1) (Homo sapiens, UniProt Q16881).
T2 sequence (Q16881 1-649): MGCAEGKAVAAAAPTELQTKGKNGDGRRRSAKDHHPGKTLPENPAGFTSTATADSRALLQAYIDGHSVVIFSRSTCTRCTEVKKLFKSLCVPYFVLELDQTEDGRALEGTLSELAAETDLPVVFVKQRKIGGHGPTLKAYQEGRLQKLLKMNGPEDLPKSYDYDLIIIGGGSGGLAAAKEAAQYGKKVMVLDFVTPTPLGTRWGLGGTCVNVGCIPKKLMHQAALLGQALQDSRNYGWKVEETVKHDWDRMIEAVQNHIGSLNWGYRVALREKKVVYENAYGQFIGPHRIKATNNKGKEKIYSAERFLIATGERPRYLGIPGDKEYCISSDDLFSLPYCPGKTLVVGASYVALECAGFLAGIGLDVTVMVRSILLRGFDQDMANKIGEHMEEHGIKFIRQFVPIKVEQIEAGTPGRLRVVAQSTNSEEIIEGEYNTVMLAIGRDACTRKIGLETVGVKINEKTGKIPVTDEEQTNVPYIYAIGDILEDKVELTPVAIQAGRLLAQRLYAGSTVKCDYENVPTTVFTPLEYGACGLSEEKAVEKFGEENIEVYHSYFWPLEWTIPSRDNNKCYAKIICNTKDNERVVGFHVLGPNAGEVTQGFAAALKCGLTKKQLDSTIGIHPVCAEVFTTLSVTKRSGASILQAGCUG
The experiment can be described thus: Inhibition of recombinant TrxR1 (DTNB assay). The format is biochemical. The procedure: as §1

[3] abbreviates: Biological Example 1, 2 nM GR, 250 μM NADPH, 15 minutes incubation.
[4] abbreviates: Biological Example 4, assays of Biological Example 1.
Where [5] appears, read: Biological Example 1, 15 nM TrxR1, 250 μM NADPH, 15 minutes incubation, read-out: TrxR inhibition.
Where [6] appears, read: Biological Example 4, assays of Biological Example 1, read-out: TrxR Inhibition.

Structures are written as SMILES. Where a name gives a salt, the structure may show the parent alone. Read-outs that look alike come from different tables or passages of the source.

With `O=C1C=C[C@H]2C3C(=O)N(C4CCCCC4)C(=O)C3[C@@H]1N2Cc1ccccc1` (mixture of isomers) [Example 10, endo-11-Benzyl-4-cyclohexyl-4,11-diazatricyclo[5.3.1.0^2,6]undec-9-ene-3,5,8-trione Trifluoroacetate], the IC50 in experiment [1] (setting [3]) was above 100 µM; in experiment [1] (setting [4]) it was above 100 µM; in experiment [2] (setting [5]), 2.7 µM; in experiment [2] (setting [6]) it was 0.79 µM.

On to `CC(C)(C)N1C(=O)C2C(C1=O)[C@@H]1C=CC(=O)[C@H]2N1Cc1ccccc1` (mixture of isomers) [Example 16, endo 11-Benzyl-4-(tert-butyl)-4,11-diazatricyclo[5.3.1.0^2,6]undec-9-ene-3,5,8-trione Trifluoroacetate], for which the IC50 in experiment [1] (setting [4]) is above 100 µM; in experiment [2] (setting [6]) it was 5.56 µM.

In the case of `O=C1C=C[C@H]2C3C(=O)N(c4ccccc4)C(=O)C3[C@@H]1N2Cc1cc(F)ccc1F` (mixture of isomers) [Example 26, endo 11-(2,5-Difluorobenzyl)-4-phenyl-4,11-diazatricyclo[5.3.1.0^2,6]undec-9-ene-3,5,8-trione Trifluoroacetate], the IC50 in experiment [1] (setting [4]) was determined as 30.1 µM; in experiment [2] (setting [6]), 2.5 µM.

Take `O=C1C=C[C@H]2C3C(=O)N(c4ccccc4)C(=O)C3[C@@H]1N2Cc1cccc(F)c1F` (mixture of isomers) [Example 30, endo-11-(2,3-Difluorobenzyl)-4-phenyl-4,11-diazatricyclo[5.3.1.0^2,6]undec-9-ene-3,5,8-trione Trifluoroacetate]: the IC50 in experiment [1] (setting [4]) worked out at 25.2 µM; in experiment [2] (setting [6]), 1.87 µM.

`CCN1C(=O)C2C(C1=O)[C@@H]1C=CC(=O)[C@H]2N1Cc1cccc(C)c1` (mixture of isomers) [Example 48, endo-4-Ethyl-11-(3-methylbenzyl)-4,11-diazatricyclo[5.3.1.0^2,6]undec-9-ene-3,5,8-trione Trifluoroacetate]: the IC50 in experiment [1] (setting [4]) is above 100 µM; in experiment [2] (setting [6]) it was 3.63 µM.

As to `CN1C(=O)C2C(C1=O)[C@@H]1C=CC(=O)[C@H]2N1Cc1ccccc1` (mixture of isomers) [Example 50, endo-11-Benzyl-4-methyl-4,11-diazatricyclo[5.3.1.0^2,6]undec-9-ene-3,5,8-trione Trifluoroacetate], the figures for the IC50 in experiment [1] (setting [4]) and in experiment [2] (setting [6]) were above 100 µM and 3.08 µM, respectively.

Turning to `O=C1C=C[C@H]2[C@@H]3C(=O)N(c4ccccc4)C(=O)[C@@H]3[C@@H]1N2Cc1ccc(-c2ccccc2)cc1` (relative stereo) [Example 2, exo-11-([1,1′-Biphenyl]-4-ylmethyl)-4-phenyl-4,11-diazatricyclo[5.3.1.0^2,6]-undec-9-ene-3,5,8-trione Trifluoroacetate], the IC50 in experiment [1] (setting [4]) amounted to 65.2 µM; in experiment [2] (setting [6]), 1.46 µM.

Consider `CN1[C@@H]2C(=O)C=C[C@H]1[C@@H]1C(=O)N(c3ccccc3)C(=O)[C@@H]12` (relative stereo) [Example 3, exo-11-Methyl-4-phenyl-4,11-diazatricyclo[5.3.1.0^2,6]undec-9-ene-3,5,8-trione Trifluoroacetate], for which the IC50 is 44 µM in experiment [1] (setting [3]), 23 µM in experiment [1] (setting [4]), 3.09 µM in experiment [2] (setting [5]) and 1.12 µM in experiment [2] (setting [6]).

For the compound `Cc1ccc(CN2[C@@H]3C(=O)C=C[C@H]2[C@@H]2C(=O)N(c4ccccc4)C(=O)[C@@H]23)cc1` (relative stereo) [Example 4, exo-11-Methylbenzyl-4-phenyl-4,11-diazatricyclo[5.3.1.0^2,6]undec-9-ene-3,5,8-trione Trifluoroacetate], the IC50 came out at 55.6 µM in experiment [1] (setting [4]) and 1.18 µM in experiment [2] (setting [6]).

Take `O=C1C=CC2C3C(=O)N(c4ccccc4)C(=O)C3C1N2Cc1cccc(C(F)(F)F)c1F` (stereo not drawn) [Example 44, exo-11-(2-Fluoro-3-(trifluoromethyl)benzyl)-4-phenyl-4,11-diazatricyclo-[5.3.1.0^2,6]undec-9-ene-3,5,8-trione Trifluoroacetate]: the IC50 in experiment [2] (setting [6]) is 2.33 µM.
